{"source": "ChEMBL document CHEMBL1765078", "about": "“17-Hydroxycyclooctatin, a fused 5-8-5 ring diterpene, from Streptomyces sp. MTE4a” (J Nat Prod, 2011)", "tested_on": "Staphylococcus aureus", "test": "Antibacterial activity against Staphylococcus aureus at 1 mg/ml", "assay_type": "functional, organism-based", "note": "Calls of active or inactive are those of the source. The rule behind the calls is not given here."}
{"smiles": "C[C@H](CO)[C@H]1CC[C@]2(C)C[C@@H]3[C@H](CO)C[C@@H](O)[C@H]3[C@@](C)(O)C/C=C/12", "values": [{"measurement": "Activity", "result": "inactive"}]}
